How the values were obtained:
[1] = Plasma composition analysis, parent compound and metabolites by MS; type: in vivo; settings: rat plasma
Procedure: Rats receive compounds (5 mg/kg) dissolved in HPβCD 15%, dextrose 2.5%, pH 5 by intravenous (i.v). route or (25-30 mg/kg) dissolved in HPβCD 15%, dextrose 2.5%, […] (s.c.) route or (50-150 mg/kg) dissolved in HPβCD 15%, dextrose 2.5%, pH 5 by oral (p.o.) route. After the treatment, approximately 100 μl of blood sample is collected and the accurate bleeding time is recorded for each sample. Each blood sample is collected into Microvette blood collection tube containing anticoagulant lithium heparin. Following collection, the samples are centrifuged at […] for 15 minutes (to avoid haemolysis) and the plasma obtained from each is recovered and stored frozen (at −80° C.) pending analysis. Frozen samples are shipped on dry ice to quantify drug concentration within plasma after extraction procedure as previously described in Example 13.

[2] = Metabolite identification (LC-MS), sample 1, source of sample not given; type: in vitro ADME
Text: The objective of this study is to analyze in vitro samples of Compound A and Compound B from rat and human microsomes using liquid chromatography quadrupole ion trap mass spectrometry and identify the nature of the metabolite(s) for each species.
The HPLC system consisted of a Thermo Surveror autosampler and a Thermo Surveyor MS pump (San Jose, Calif., USA). The LC-MS/MS system used was a Thermo LCQ Advantage (San Jose, Calif., USA). Data was acquired on a Dell Optiplex desktop computer (Round Rock, Tex., USA) equipped with operation system Windows XP professional. Data acquisition and analysis were performed using XCalibur 1.4 (San Jose, Calif., USA).
After the incubation period of the liver microsomes, the reaction was stopped with the addition of acetonitrile and frozen for transport. Before analysis, the samples were thawed at room temperature. They were vortexed vigorously and centrifuged at approximately 12000 g for 10 minutes. The supernatant was transferred into an injection vial for analysis.
A gradient mobile phase was used with a Thermo Phenyl 100×2 mm column with particle size of 5 μm. The initial mobile phase condition consisted of methanol and 0.1% formic acid solution at a ratio of 20:80, respectively. From 0 to 2 minutes, the ratio was maintained at 20:80. From 2 to 10 minutes, a linear gradient was applied and a ratio of 90:10 was maintained from 10 to 12 minutes. […] The flow rate was fixed at 0.25 mL/min.
The mass spectrometer was interfaced with the HPLC system using a pneumatic assisted electrospray ion source. The sheath gas was set to 15 units and the ESI electrode was set to 4000 V (positive mode). The capillary temperature was set at 300° C., and the capillary voltage was set to 13 V. The mass spectrometer was operating in full scan MS mode using one segment analysis (200-800).

Plasma Component: N-desMe or desEt ([1]; IV 5 mg/kg): Small
Plasma Component: O-desMe ([1]; IV 5 mg/kg): Trace
Plasma Component: N-desMe or desEt ([1]; PO 50 mg/kg): Small
Plasma Component: O-desMe ([1]; PO 50 mg/kg): Trace
Compound A metabolite identification: m/z 342 [2]: no
Compound A metabolite identification: m/z 356 (parent) [2]: Yes
Compound A metabolite identification: m/z 372 [2]: no
Compound A metabolite identification: m/z 412 [2]: no
SMILES: COc1ccc(F)cc1-c1cc2c(c3c1CCN(C)C3)NC(=O)C2=NO [Compound A, 5-(5-fluoro-2-methoxyphenyl)-6,7,8,9-tetrahydro-3-(hydroxyimino)-8-methyl-1H-pyrrolo[3,2-h]isoquinoline-2(3H)-one]

— patent US20090246134A1, “COMPOSITIONS AND METHODS FOR MODULATING GATED ION CHANNELS” (PainCeptor Pharma Corporation, priority 2007, published 2009)
